# According to patent publication US10131652B2, “Pyrimidinyloxy benzene derivatives as herbicides” (E. I. DU PONT DE NEMOURS AND COMPANY, priority 2014, dated 2018):
# Read-outs that look alike come from different tables or passages of the source.
# Columns and labels:
# Format in all cases: in vivo
# [1] = test system: johnsongrass (Sorghum halepense); test: Test D pre-/postemergence plant response; conditions: Sorghum halepense; for pest or weed control at 16 g/ha: 16 g ai/ha; for pest or weed control at 31 g/ha: 31 g ai/ha; for pest or weed control at 62 g/ha: 62 g ai/ha; for pest or weed control at 125 g/ha: 125 g ai/ha
# Summary of the method: (§1)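 Ratings were visual, 0 = no effect to 100 = complete control, taken against untreated controls after 13 to 15 days in a greenhouse. Chemicals, formulated in non-phytotoxic surfactant-containing solvent, went onto soil (loam/sand) at planting for preemergence, or onto 1- to 4-leaf plants (2–18 cm) for postemergence.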
# [2] = test system: lambsquarters (Chenopodium album); test: Test D pre-/postemergence plant response; conditions: Chenopodium album; for pest or weed control at 16 g/ha: 16 g ai/ha; for pest or weed control at 31 g/ha: 31 g ai/ha; for pest or weed control at 62 g/ha: 62 g ai/ha; for pest or weed control at 125 g/ha: 125 g ai/ha
# Summary of the method: as §1
# [3] = test system: wheat (Triticum aestivum); test: Test B pre-/postemergence plant response; conditions: for plant injury at 500 g/ha: 500 g ai/ha
# Summary of the method: (§2)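 Steps: plant seeds in loam soil–sand mix; spray soil preemergence, and in parallel spray 2–10 cm one- to two-leaf plants postemergence; hold ~10 days in greenhouse; visually rate injury against untreated controls (0 = no effect, 100 = complete control).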
# [4] = test system: giant foxtail (Setaria faberii); test: Test B pre-/postemergence plant response; conditions: for pest or weed control at 500 g/ha: 500 g ai/ha
# Summary of the method: as §2
# [5] = test system: barnyardgrass (Echinochloa crus-galli); test: Test B pre-/postemergence plant response; conditions: for pest or weed control at 500 g/ha: 500 g ai/ha
# Summary of the method: as §2
# corn (Zea mays) = test: Test B pre-/postemergence plant response; conditions: for Corn plant response rating (crop injury, 0 = no effect, 100 = complete kill) at 500 g/ha: 500 g ai/ha
# Summary of the method: as §2
# [6] = test system: pigweed (Amaranthus retroflexus); test: Test B pre-/postemergence plant response; conditions: for pest or weed control at 500 g/ha: 500 g ai/ha
# Summary of the method: as §2
# [7] = test system: small-flower umbrella sedge (Cyperus difformis); test: Test C flooded paddy test plant response; conditions: Cyperus difformis; Flood, 250 g ai/ha; scale of 0 to 100 where 0 is no effect and 100 is complete control; 13 to 15 days; read-out: Sedge, Umbrella plant response rating
# Summary of the method: (§3)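 Scored visually on a 0–100 scale (100 = complete control) against untreated plants 13 to 15 days after treatment in the greenhouse. Compounds went into paddy water of pots flooded to 3 cm, holding 2-leaf-stage plants.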
# [8] = test system: barnyardgrass (Echinochloa crus-galli); test: Test C flooded paddy test plant response; conditions: Echinochloa crus-galli; Flood, 250 g ai/ha; scale of 0 to 100 where 0 is no effect and 100 is complete control; 13 to 15 days; read-out: Barnyardgrass plant response rating
# Summary of the method: as §3
# rice (Oryza sativa) = test: Test C flooded paddy test plant response; conditions: Oryza sativa; Flood, 250 g ai/ha; scale of 0 to 100 where 0 is no effect and 100 is complete control; 13 to 15 days; read-out: Rice plant response rating
# Summary of the method: as §3
# [9] = test system: ducksalad (Heteranthera limosa); test: Test C flooded paddy test plant response; conditions: Heteranthera limosa; Flood, 250 g ai/ha; scale of 0 to 100 where 0 is no effect and 100 is complete control; 13 to 15 days; read-out: Ducksalad plant response rating
# Summary of the method: as §3
# [10] = post-emergence, Postemergence, scale 0 to 100, 0 no effect, 100 complete control, read-out: Plant response rating, Johnsongrass
# [11] = pre-emergence, Preemergence, scale 0 to 100 (0 no effect, 100 complete control), read-out: Plant response rating, Johnsongrass
# [12] = pre-emergence, Preemergence, scale 0 to 100 (0 no effect, 100 complete control), read-out: Plant response rating, Lambsquarters
# [13] = Preemergence, 125 g ai/ha, 0 to 100 scale (0 no effect, 100 complete control)
smiles,measurement,setting,value
"FC(F)(F)c1cc(-c2ccccc2Oc2ncc(Cl)cn2)no1 [Compound 200, 5-chloro-2-[2-[5-(trifluoromethyl)-3-isoxazolyl]phenoxy]pyrimidine]",pest or weed control at 16 g/ha,"[1]; post-emergence, Postemergence, read-out: Plant response rating (scale 0 to 100), Johnsongrass",15%
same,pest or weed control at 31 g/ha,"[1]; post-emergence, Postemergence, scale 0 to 100 (0 no effect, 100 complete control), read-out: Johnsongrass plant response rating",20%
same,pest or weed control at 62 g/ha,[1]; [10],45%
same,pest or weed control at 125 g/ha,[1]; [10],40%
same,pest or weed control at 125 g/ha,"[1]; pre-emergence, Preemergence, read-out: Plant response rating (scale 0 to 100), Johnsongrass",100%
same,pest or weed control at 16 g/ha,[1]; [11],25%
same,pest or weed control at 31 g/ha,[1]; [11],60%
same,pest or weed control at 62 g/ha,[1]; [11],85%
same,pest or weed control at 16 g/ha,"[2]; post-emergence, Postemergence, read-out: Plant response rating (scale 0 to 100), Lambsquarters",70%
same,pest or weed control at 31 g/ha,"[2]; post-emergence, Postemergence, scale 0 to 100 (0 no effect, 100 complete control), read-out: Lambsquarters plant response rating",80%
same,pest or weed control at 62 g/ha,"[2]; post-emergence, Postemergence, scale 0 to 100, 0 no effect, 100 complete control, read-out: Lambsquarters plant response rating",85%
same,pest or weed control at 125 g/ha,"[2]; post-emergence, Postemergence, scale 0 to 100, 0 no effect, 100 complete control, read-out: Plant response rating, Lambsquarters",98%
same,pest or weed control at 125 g/ha,"[2]; pre-emergence, Preemergence, read-out: Plant response rating (scale 0 to 100), Lambsquarters",100%
same,pest or weed control at 16 g/ha,[2]; [12],75%
same,pest or weed control at 31 g/ha,[2]; [12],98%
same,pest or weed control at 62 g/ha,[2]; [12],95%
same,Wheat plant response rating,[3]; [13],20
same,plant injury at 125 g/ha,"[3]; Triticum aestivum, post-emergence, 240 h, 125 g ai/ha, postemergence, 0 to 100 scale, 0 no effect, 100 complete control, read-out: Plant response rating, Wheat",60%
same,plant injury at 500 g/ha,"[3]; Triticum aestivum, post-emergence, 240 h, postemergence, 0 to 100 scale, 0 no effect, 100 complete control, read-out: Plant response rating, Wheat",100%
same,plant injury at 500 g/ha,"[3]; Triticum aestivum, pre-emergence, 240 h, Preemergence, 0 to 100 scale where 0 is no effect and 100 is complete control, read-out: Plant response rating, Wheat",90%
same,"Foxtail, Giant plant response rating",[4]; [13],100
same,pest or weed control at 125 g/ha,"[4]; Setaria faberi, post-emergence, 240 h, 125 g ai/ha, postemergence, 0 to 100 scale, 0 no effect, 100 complete control, read-out: Plant response rating, Foxtail, Giant",100%
same,pest or weed control at 500 g/ha,"[4]; Setaria faberi, post-emergence, 240 h, postemergence, 0 to 100 scale, 0 no effect, 100 complete control, read-out: Plant response rating, Foxtail, Giant",100%
same,pest or weed control at 500 g/ha,"[4]; Setaria faberi, pre-emergence, 240 h, Preemergence, 0 to 100 scale where 0 is no effect and 100 is complete control, read-out: Plant response rating, Foxtail, Giant",100%
same,pest or weed control at 125 g/ha,"[5]; Echinochloa crus-galli, post-emergence, 240 h, 125 g ai/ha, postemergence, 0 to 100 scale, 0 no effect, 100 complete control, read-out: Plant response rating, Barnyardgrass",90%
same,pest or weed control at 500 g/ha,"[5]; Echinochloa crus-galli, post-emergence, 240 h, postemergence, 0 to 100 scale, 0 no effect, 100 complete control, read-out: Plant response rating, Barnyardgrass",100%
same,pest or weed control at 500 g/ha,"[5]; Echinochloa crus-galli, pre-emergence, 240 h, Preemergence, 0 to 100 scale where 0 is no effect and 100 is complete control, read-out: Plant response rating, Barnyardgrass",100%
same,Barnyardgrass plant response rating,[5]; [13],100
same,Corn plant response rating,corn (Zea mays); [13],20
same,"Corn plant response rating (crop injury, 0 = no effect, 100 = complete kill) at 125 g/ha","corn (Zea mays); Zea mays, post-emergence, 240 h, 125 g ai/ha, postemergence, 0 to 100 scale, 0 no effect, 100 complete control",50%
same,"Corn plant response rating (crop injury, 0 = no effect, 100 = complete kill) at 500 g/ha","corn (Zea mays); Zea mays, post-emergence, 240 h, postemergence, 0 to 100 scale, 0 no effect, 100 complete control",90%
same,"Corn plant response rating (crop injury, 0 = no effect, 100 = complete kill) at 500 g/ha","corn (Zea mays); Zea mays, pre-emergence, 240 h, Preemergence, 0 to 100 scale where 0 is no effect and 100 is complete control",100%
same,pest or weed control at 125 g/ha,"[6]; Amaranthus retroflexus, post-emergence, 240 h, 125 g ai/ha, postemergence, 0 to 100 scale, 0 no effect, 100 complete control, read-out: Plant response rating, Pigweed",100%
same,pest or weed control at 500 g/ha,"[6]; Amaranthus retroflexus, post-emergence, 240 h, postemergence, 0 to 100 scale, 0 no effect, 100 complete control, read-out: Plant response rating, Pigweed",100%
same,pest or weed control at 500 g/ha,"[6]; Amaranthus retroflexus, pre-emergence, 240 h, Preemergence, 0 to 100 scale where 0 is no effect and 100 is complete control, read-out: Plant response rating, Pigweed",100%
same,Pigweed plant response rating,[6]; [13],100
same,pest or weed control at 250 g/ha,[7],100%
same,pest or weed control at 250 g/ha,[8],90%
same,plant injury at 250 g/ha,rice (Oryza sativa),35%
same,pest or weed control at 250 g/ha,[9],100%
